From patent US10106627B2, “Process for the preparation of polymeric biosurfactants” (priority 2014, dated 2018)

What was measured:
[1] = tested on: IL-6 in RAW 264.7 cells; assay: LPS-induced IL-6 ELISA in RAW 264.7 cells; format: cell-based, mouse; conditions: 50 μg ml^−1; LPS 100 ng ml^−1 24 h; LPS alone 190.9
Method: The effect of Brevisan, Microsan and M-EPS-Au-NP on the release of proinflammatory cytokines, TNF-α and IL-6, was measured using ELISA kits (Biosource International, Camarillo, Calif., USA). In independent experiments, the RAW-264.7 cells were treated with different concentrations (1, 10, 50 and 100 μg ml^−1) of Brevisan, Microsan and M-EPS-Au-NP and then stimulated with 100 ng ml^−1 of LPS. The supernatants were harvested after 24 h and the concentrations of TNF-α and IL-6 was measured using an ELISA kit according to the manufacturer's instructions.

[2] = tested on: C3 complement component in RAW 264.7 macrophages; assay: LPS-induced C3 complement component production ELISA in RAW 264.7 macrophages; format: cell-based, mouse; conditions: 1, 10, 20 and 50 μg/ml; LPS 100 ng ml^−1 24 h
Method: The effect of Brevisan, Microsan and M-EPS-Au-NP on C3 complement component was measured using ELISA kits (Antibodies, Atlanta, USA). RAW 264.7 cells were treated with Brevisan, Microsan and M-EPS-Au-NP at 1, 10, 20 and 50 μg/ml, respectively, and then stimulated with 100 ng ml^−1 of LPS. After incubating for 24 h, 50 μl of supernatant was collected and added to each well in an antibody coated 96-well plate. After I h, the wells were washed with PBS and incubated with 100 μl of horse radish peroxidase (HRP)-conjugate for 1 h at 37° C. and then incubated with 50 μl of O-phenylenediamine (0.2% w/v in 0.017 M citrate phosphate buffer, pH 6) and 50 μl of 0.015% hydrogen peroxide for 15 min and the reaction was stopped by adding 50 μl of 12.5% sulphuric acid and the optical density was measured at 450 nm using Biotek EIA Reader (Biotek Instruments, Inc., VT, USA). The results shown are the average of three independent experiments. Further, the hemolytic activity of the secreted C3 was measured as described earlier [Gasque, P., Julen, N., Ischenko, A. M., Picot, C., Mauger, C., Chauzy, C., Ripoche, J. and Fontaine, M. (1992) J. Immunol. 149, 1381-1389]. […] Then 1.5 ml of PBS was added, centrifuged at 10,000 rpm for 5 min and the hemoglobin released present in the supernatant was quantified by measuring the absorbance at 415 nm. […]

[3] = Surface tension, Wilhelmy plate method; format: physicochemical; conditions: from 72
Method: The bacterial strains producing biosurfactants were isolated from the petroleum-contaminated soil sample collected from Mupkal, Nizamabad, Andhra Pradesh, India (latitude 18.90° N and longitude 78.36° E). The soil sample was enriched by placing 1.0 g of soil sample in 100 ml of mineral salts medium supplemented with N-hexadecane (1%, v/v) as a sole carbon source for three weeks. The enriched sample was serially diluted and then plated on the mineral salts agar plates overlaid with N-hexadecane which acted as a sole carbon source. The colonies that appeared on the plates upon incubation at 37° C. for 72 h were purified for 2-3 times on nutrient agar plates. The isolated pure microorganisms were cultured in liquid mineral salts medium at 37° C. for 72 h. The cells were separated by centrifugation and the cell-free supernatant was measured for the reduction in surface tension values by Wilhelmy plate method using a Du-Nouy K100MK2 Processor Tensiometer (Krüss, Hamburg, Germany). The concentration series was generated automatically with a computer-controlled Dosimat (Metrohm AG, Switzerland). […] The critical micelle concentration (CMC) was measured by plotting the concentration of surfactant as a function of surface tension, and the CMC was taken as the point where the slope of the curve abruptly changed. […]

[4] = Interfacial tension, Du-Nouy ring method; format: physicochemical
Method: The surface tension of the purified Microsan from Microbacterium sp. strain BS-2 and Brevisan from Brevibacillus sp. strain BS-207 was measured by Wilhelmy plate method using a Du-Nouy K100MK2 Processor Tensiometer (Krüss, Hamburg, Germany) which reduced the surface tension of water from 72 to 31.2 mN m^−1. The interfacial tension value was measured by Du-Nouy ring method and it was determined as 25.7 mN m. The critical micelle concentration (CMC) was measured by plotting the concentration of EPS as a function of surface tension. The CMC is the point where the slope of the curve abruptly changed was determined as 75 mg l^−1. The emulsification index (EI24) was determined by the addition of 4 ml of culture supernatant to 6 ml of various hydrocarbons (N-Hexadecane, tridecane, hexane, toluene and xylene) and oils (mineral oil and soybean oil) and the mixtures were vortexed for 2 min and allowed to stand for 24 h. The emulsification index (EI24) values expressed as the percentage of height of emulsified layer to the height of total liquid column.

β-D-glucuronyl-(1-2)-D-mannosyl-(1-4)-D-glucose [Microsan]
IL-6 production after treatment [1]: 90.01 µg/mL | inhibition of C3 complement component production [2]: did not inhibit | surface tension of water reduced to [3]: 31.2 mN m^−1 | interfacial tension [4]: 25.7 mN m
